Experimental data from patent US20260034044A1, “A PRESERVATIVE COMPOSITION” (AnalytiCon Discovery - Zweigniederlassung der BRAIN Biotech …, priority 2022, published 2026).
Values after ≈ are worked out from the molar mass of the structure shown.

Experiments:
Assay type in all cases: cell-based
[1] = system: Clostridium perfringens DSM 756; assay: microbe, parasite or virus in culture; details: DSM756, pH 3.8, read-out: Minimal Inhibitory Concentration (MIC)
[2] = system: Zygosaccharomyces rouxii DSM 7525; assay: Antimicrobial activity (MIC); details: DSM7525, potato dextrose broth pH 3.8, visual evaluation, read-out: Minimal Inhibitory Concentration (MIC)
[3] = system: Lactobacillus paracasei ssp. paracasei DSM 46331; assay: Antimicrobial activity (MIC); details: Lacticaseibacillus paracasei, DSM46331, potato dextrose broth pH 3.8, visual evaluation, read-out: Minimal Inhibitory Concentration (MIC)
Bacillus cereus DSM4490 = assay: Antimicrobial activity (MIC); details: potato dextrose broth pH 3.8, visual evaluation, read-out: Minimal Inhibitory Concentration (MIC)
[4] = system: Streptococcus mutans DSM 20523; assay: Antimicrobial activity (MIC); details: DSM20523, potato dextrose broth pH 3.8, visual evaluation, read-out: Minimal Inhibitory Concentration (MIC)
[5] = system: Bacillus licheniformis DSM 13; assay: Antimicrobial activity (MIC); details: DSM13, potato dextrose broth pH 3.8, visual evaluation, read-out: Minimal Inhibitory Concentration (MIC)
[6] = system: Alternaria alternata DSM 12633; assay: Antimicrobial activity (MIC); details: DSM12633, potato dextrose broth pH 3.8, visual evaluation, read-out: Minimal Inhibitory Concentration (MIC)
[7] = system: Gluconacetobacter liquefaciens DSM 5603; assay: Antimicrobial activity (MIC); details: DSM5603, potato dextrose broth pH 3.8, visual evaluation, read-out: Minimal Inhibitory Concentration (MIC)
[8] = system: Leuconostoc lactis DSM 20202; assay: Antimicrobial activity (MIC); details: DSM20202, potato dextrose broth pH 3.8, visual evaluation, read-out: Minimal Inhibitory Concentration (MIC)
[9] = system: Cladosporium cladosporioides DSM19653; assay: Antimicrobial activity (MIC); details: potato dextrose broth pH 3.8, visual evaluation, read-out: Minimal Inhibitory Concentration (MIC)
[10] = system: Byssochlamys fulva DSM 1808; assay: Antimicrobial activity (MIC); details: Paecilomyces fulvus, DSM1808, potato dextrose broth pH 3.8, visual evaluation, read-out: Minimal Inhibitory Concentration (MIC)
[11] = system: Zygosaccharomyces bailii DSM 70834; assay: Antimicrobial activity (MIC); details: DSM70834, potato dextrose broth pH 3.8, visual evaluation, read-out: Minimal Inhibitory Concentration (MIC)
[12] = system: Phanerochaete chrysosporium DSM 1556; assay: Antimicrobial activity (MIC); details: Phanerodontia chrysosporium, DSM1556, potato dextrose broth pH 3.8, visual evaluation, read-out: Minimal Inhibitory Concentration (MIC)
[13] = system: Actinomyces viscosus DSM43798; assay: Antimicrobial activity (MIC); details: potato dextrose broth pH 3.8, visual evaluation, read-out: Minimal Inhibitory Concentration (MIC)
[14] = system: Alicyclobacillus acidoterrestris DSM 2498; assay: Antimicrobial activity (MIC); details: DSM2498, potato dextrose broth pH 3.8, visual evaluation, read-out: Minimal Inhibitory Concentration (MIC)

Structure (SMILES)	MIC [1] [µg/mL]	MIC [2] [µg/mL]	MIC [3] [µg/mL]	MIC (Bacillus cereus DSM4490) [µg/mL]	MIC [4] [µg/mL]	MIC [5] [µg/mL]	MIC [6] [µg/mL]	MIC [7] [µg/mL]	MIC [8] [µg/mL]	MIC [9] [µg/mL]	MIC [10] [µg/mL]	MIC [11] [µg/mL]	MIC [12] [µg/mL]	MIC [13] [µg/mL]	MIC [14] [µg/mL]
CC1CC[C@@]2(OC1)O[C@H]1CC3C4CC=C5C[C@@H](O[C@@H]6O[C@H](CO)[C@@H](O[C@@H]7O[C@@H](C)[C@H](O)[C@@H](O)[C@H]7O)[C@H](O)[C@H]6O[C@@H]6O[C@@H](C)[C@H](O)[C@@H](O)[C@H]6O)CC[C@]5(C)C4CC[C@]3(C)[C@@]1(O)[C@@H]2C (stereo partly drawn) [C]	> 80	500 (≈ 565 µM)	> 80	> 80	> 80	> 80	> 80	40 (≈ 45.2 µM)	> 80	> 80	> 80	> 80	> 80	> 80	80 (≈ 90.4 µM)
C[C@@H]1CC[C@@]2(OC1)O[C@H]1CC3C4CC=C5CC(O[C@@H]6O[C@H](CO)[C@@H](O[C@@H]7O[C@@H](C)[C@H](O[C@@H]8O[C@@H](C)[C@H](O)[C@@H](O)[C@H]8O)[C@@H](O)[C@H]7O)[C@H](O)[C@H]6O[C@@H]6O[C@@H](C)[C@H](O)[C@@H](O)[C@H]6O)CC[C@]5(C)C4CC[C@]3(C)[C@@]1(O)[C@@H]2C (stereo partly drawn) [B]	> 80	500 (≈ 485 µM)	> 80	> 80	> 80	> 80	> 80	40 (≈ 38.8 µM)	> 80	> 80	> 80	> 80	> 80	> 80	140 (≈ 136 µM)
C[C@H]1CC[C@@]2(OC1)O[C@H]1CC3C4CC[C@H]5C[C@@H](O[C@@H]6O[C@H](CO)[C@H](O[C@@H]7O[C@H](CO)[C@@H](O)[C@H](O[C@@H]8OC[C@@H](O)[C@H](O)[C@H]8O)[C@H]7O[C@@H]7O[C@H](CO)[C@@H](O)[C@H](O)[C@H]7O)[C@H](O)[C@H]6O)[C@H](O)C[C@]5(C)C4=CC(=O)[C@]3(C)[C@H]1[C@@H]2C (stereo partly drawn) [A]	> 80	500 (≈ 470 µM)	> 80	> 80	> 80	> 80	> 80	140 (≈ 132 µM)	80 (≈ 75.2 µM)	> 80	> 80	> 80	> 80	> 80	40 (≈ 37.6 µM)
C[C@H]1CC[C@@]2(OC1)O[C@H]1CC3C4CC[C@H]5C[C@@H](O[C@@H]6O[C@H](CO)[C@H](O[C@@H]7O[C@H](CO)[C@@H](O)[C@H](O)[C@H]7O[C@@H]7O[C@H](CO)[C@@H](O)[C@H](O)[C@H]7O)[C@H](O)[C@H]6O)[C@H](O)C[C@]5(C)C4=CC(=O)[C@]3(C)[C@H]1[C@@H]2C (stereo partly drawn) [D]	> 80	500 (≈ 537 µM)	> 80	> 80	> 80	> 80	> 80	140 (≈ 150 µM)	80 (≈ 85.9 µM)	> 80	> 80	> 80	> 80	> 80	40 (≈ 43 µM)
